According to ChEMBL document CHEMBL3507680, “University of Dundee, Gates Library screen for HepG2 cell viability”:

Assay: Human HepG2 cell viability assay in 384 well format
Format: toxicity, cell-based
Parameters: dose 125 nL, time 70.5 hour; concentration not given beside the values
Conditions: HepG2 cells, read-out: Inhibition

Row | SMILES | cytotoxicity at 70.5 h [%]
1 | CCN(C(C)=O)C1CCN(c2nccc(C3CCCC3)n2)C1 (stereo unspecified) | -30.2
2 | Cc1noc([C@@H](C)NCc2ccc(F)cc2)c1C(=O)O | -1.34
3 | O=C(CCCc1cn[nH]c1)N1C[C@H](CO)C[C@H](CN2CCCC2)C1 | -5.76
4 | CCSc1ccc(C(=O)N2CCC3(CC2)[C@H](O)C[C@@H]3O)s1 | -12.1
5 | COCCCNC(=O)CN(C)C(=O)c1cc(C)ccc1N(C)C(C)C | -3.7
6 | CC(CC(=O)O)CC(=O)Nc1sc2c(c1C(N)=O)CCc1ccccc1-2 (stereo unspecified) | 19.3
7 | Cc1c(C)n(-c2ccccn2)c2nc3c(c(N)c12)CCCC3 | -9.17
8 | Cc1nn2c(NC(=O)CSc3nccn3C)csc2nc1=O | 6.49
9 | COCCC1(C(=O)O)CCN(c2cc(C)c3ccccc3n2)CC1 | 18.8
10 | N#Cc1ccc(CNC(=O)NC2CCN(CC(F)F)CC2)cc1 | -9.49
11 | N#CCc1ccc(OCC(=O)N2CCCC(n3cccn3)C2)cc1 (stereo unspecified) | -10.5
12 | O[C@H]1CCN(Cc2ccoc2)[C@H]1Cc1cccnc1 | 30.5
13 | Cc1cccn2c(=O)cc(OC(=O)c3ccc(OC(C)C)cc3)nc12 | -14.3
14 | CCN(C)c1ccc(C(=O)N(CCOC)Cc2ccccn2)cc1 | 14.7
15 | CCNC(=O)NC[C@H]1C[C@@H]2CCN1C[C@@H]2c1cc(-c2cccs2)nn1C | -3.63
16 | CCC(=O)NC(CC(C)C)c1cccs1 (stereo unspecified) | -14
17 | CC(=O)N1CCCN(C(=O)c2cnc3n[nH]c(C)c3c2)CC1 | 11.1
18 | COc1ccc(COCC(=O)NC2CCc3nc(C)cn3C2)cc1 (stereo unspecified) | -2.95
19 | CO[C@H]1CN(S(=O)(=O)c2cn(C)cn2)[C@@H]2CCCO[C@H]12 | 24.5
20 | CO[C@@H]1CC[C@H]2[C@H]1OCCN2Cc1ccc(F)cc1 | -9.94
21 | CC(C)(C)CC(=O)NCC(=O)Nc1ccn(Cc2ccncc2)n1 | -20.8
22 | O=C(Cc1ccon1)N1CCc2cc(Br)sc2C1 | -3.84
23 | CCN(C(=O)CN1CCC(c2cc3ccccc3[nH]2)CC1)C1CC1 | 4.18

Row | SMILES | cytotoxicity at 70.5 h [%]
24 | COc1ccc(CN2CC[C@@H]3[C@H]2CCC(=O)N3c2cnn(C)c2)cc1 | 5.08
25 | Cc1oc(C(=O)Nc2cccc(Cl)c2C)cc1S(N)(=O)=O | 0.43
26 | CCOCC(=O)N1CCc2c(CN(C)C)nn(C(C)C)c2C1 | -4.01
27 | CN(Cc1cn(C2CCNCC2)nn1)CC1CCCO1 (stereo unspecified) | -9.31
28 | Cn1nc(CN2CCCCC2)c2c1CN(C(=O)Nc1cccc(F)c1)C2 | 11.6
29 | Cc1ccccc1CN(C)C(=O)CN1CCOC(Cn2cccn2)C1 (stereo unspecified) | 3.04
30 | Cc1cccnc1NC(=O)C1CCCN1Cc1ccccc1 (stereo unspecified) | 8.68
31 | CN(C)c1cc2c(nn1)CCN(C(=O)C1CCCc3ccccc31)C2 (stereo unspecified) | -8.02
32 | COc1ccnc(N2CCc3ccc(OC(F)F)cc3C2)n1 | -2.84
33 | CN(Cc1cn2ccccc2n1)C1CCCN(c2cccnn2)C1 (stereo unspecified) | 12.5
34 | CCC(C)N(C)C(=O)Nc1ccc(N2CCSCC2)cc1C (stereo unspecified) | -5.01
35 | NC(=O)NC(=O)CNC1(c2ccc(Cl)cc2)CCC1 | 2.08
36 | N#Cc1ccc(C(=O)N2CCC(Oc3ccc(C#N)cn3)CC2)cc1 | -3.02
37 | CCOCCn1nc(C)cc1C(=O)N1CCC2(CC1)[C@H](O)C[C@@H]2OCC | 0.508
38 | Cc1ccc(S(=O)(=O)n2ccn(C(=O)CC(C)C)c2=O)cc1 | -19.3
39 | CC(=O)c1ccc(OCC(=O)NS(=O)(=O)c2ccc(Cl)s2)cc1 | -10.1
40 | COc1ccc(SC(C)C(=O)N2CCC(C(=O)N3CCCC3)CC2)cc1 (stereo unspecified) | -5.49
41 | Cc1ccccc1CCNC(=O)C1CC(=O)N(CC(F)(F)F)C1 (stereo unspecified) | 26.6
42 | O=C(c1cnccn1)N1CC2(CCN(Cc3ccsc3)C2)C1 | -4.05
43 | Cc1ccc2c(c1)C(NC(=O)N(C)C)CC21CCN(C(C)C)CC1 (stereo unspecified) | -5.2
44 | Cc1c(-c2ccccc2)ncn1CC(c1cccnc1)N1CCOCC1 (stereo unspecified) | -2.03
45 | CC(=O)N1CCC2(CCCN(S(=O)(=O)c3ccccc3)C2)C1 (stereo unspecified) | 20
46 | CCOC(=O)N1CCN(C(=O)C(C)n2ccnc2C(C)C)CC1 (stereo unspecified) | 8.16

Row | SMILES | cytotoxicity at 70.5 h [%]
47 | COc1ccnc(N2CCN(C(=O)COCC(F)(F)F)CC2)n1 | 13
48 | CC(=O)NC(Cc1c[nH]c2cc(F)ccc12)C(=O)Nc1nncs1 (stereo unspecified) | -2.58
49 | O=C(c1ccc2c(c1)OCCO2)N1CCCC(n2ccnc2)C1 (stereo unspecified) | -4.86
50 | CCNC(=O)N1C[C@@H]2OCC(=O)N(C(C)C)[C@@H]2C1 | -0.389
51 | CCN1CCn2c(C)cnc2C12CCN(C(=O)C(C)C)CC2 | -15.2
52 | Cc1cc(C)c2cc(CNCc3ccco3)c3nn(C)c(=O)n3c2c1 | 19.9
53 | COC(=O)N1CCN(Cc2csc(-c3ncccn3)n2)CC1 | -5.37
54 | Cc1cccc(CSc2ncc(Br)c(C(=O)O)n2)c1 | -8.53
55 | COCCn1ccnc1C1CCN(C(=O)CSc2nnc(C)o2)CC1 | 9.15
56 | CCCN(C(=O)c1cnns1)C1CCCN(Cc2ccccc2)C1 (stereo unspecified) | -7.29
57 | CO[C@@H]1CCN(Cc2c(C)noc2C)[C@@H]2CN(Cc3ccco3)C[C@@H]21 | -2.94
58 | COc1cccc(C2CCCN2CCCNS(C)(=O)=O)c1 (stereo unspecified) | -12.4
59 | COCCc1noc(CN(C)c2nc(C)nc(C)c2C)n1 | 25.3
60 | O=C(Cc1ccccc1)N1CCN(Cc2noc(C3CC3)n2)CC1 | -1.85
61 | Cn1cnnc1C1CCCN(C(=O)NCCc2ccccc2F)C1 (stereo unspecified) | -11.6
62 | COc1cc(N(C)Cc2cccc(-n3cccn3)c2)nc(N)n1 | -1.55
63 | CS(=O)(=O)N1CC2(CCN(C3CCCCC3)CC2)Cc2ccccc21 | -7.63
64 | CCc1cnc(N2CC[C@@H]3CN(C(=O)c4ccco4)CCO[C@@H]3C2)nc1 | -10.8
65 | Cc1nnsc1CNC(=O)c1ccc2c(c1)nc(N1CCOCC1)n2C | -12.9
66 | CNc1ncc(C(=O)N2CCC3(CC2)Nc2ccccc2NC3=O)cn1 | -0.695
67 | NC1CCCN(C(=O)c2csc(-c3ccc(C(F)(F)F)cc3)n2)CC1 (stereo unspecified) | 36.2
68 | CC(C)c1nc(CN2CCN(CC(O)c3ccccc3)CC2)no1 (stereo unspecified) | -4.77
69 | O=C(Nc1ccc(Cl)cn1)C1CCCN(CCc2ccncc2)C1 (stereo unspecified) | -1.77

Row | SMILES | cytotoxicity at 70.5 h [%]
70 | CS(=O)(=O)N1CCC[C@]2(C[C@@H](Oc3ncccc3F)CO2)C1 | -5.05
71 | Cc1nc(N(C)C)nc(N(C)CCc2ccncc2)c1C | -15.2
72 | CCC(C(=O)NCc1ccncc1)N(c1ccc(F)cc1)S(C)(=O)=O (stereo unspecified) | -0.482
73 | O=C(c1cccc(CNS(=O)(=O)c2ccccc2F)c1)N1CCCC1 | -16.2
74 | CN1CCN(Cc2c[nH]cn2)CC12CCC(=O)N(CC1CC1)CC2 (stereo unspecified) | 6.57
75 | Cc1nc2ccccc2n1CCNCc1cccc(O)c1 | -4.75
76 | C/N=C1/c2cc3cc(OC)ccc3n2CCN1C | -0.795
77 | c1ccc(CN2CCc3ncnc(C4CC4)c3CC2)nc1 | -1.29
78 | CCCNS(=O)(=O)c1cc2c3c(c1)c(C)cc(=O)n3CCC2 | -0.859
79 | Cc1ccc(NC(=O)N(CCO)Cc2ccsc2)cc1 | -0.584
80 | COC1CCN(S(=O)(=O)N2C[C@H](c3ccccc3)[C@@H](N)C2)CC1 | -2.79
81 | Cc1ccc2c(c1)C1(CCNCC1)CC2NCCO (stereo unspecified) | -1.58
82 | CN(CC(=O)N1CCC(C(O)c2ccccc2)CC1)c1cnccn1 (stereo unspecified) | -20.6
83 | COCCCN1CC2(CCCN(CCn3cc(Cl)cn3)C2)CCC1=O (stereo unspecified) | -21.9
84 | O=C(N[C@@H]1CN(Cc2ccsc2)[C@@H]2CCCO[C@@H]21)C1CC1 | 9.03
85 | Cc1ccccc1C(C)NC(=O)CN1CCN(Cc2ccc(Cl)s2)CC1 (stereo unspecified) | 17
86 | Cc1cc(CN2CCC(C3CCN(Cc4cccnc4)CC3)C2)[nH]n1 (stereo unspecified) | -6.23
87 | O=C(C1CCC1)N1CCC(C2CCN(Cc3ccc(Cl)cc3)C2)CC1 (stereo unspecified) | -3.08
88 | O=C(Nc1nncs1)NC1CCN(Cc2ccccc2)C1 (stereo unspecified) | -5.56
89 | COc1cc2cc(C(=O)NC(C)C(=O)O)n(C)c2c(OC)c1OC (stereo unspecified) | -7.07
90 | CC1CN(C(=O)C2(c3ccc(F)cc3F)CCOCC2)CCO1 (stereo unspecified) | -2.6
91 | Cc1noc(C)c1CN(C)C(=O)c1nc(N2CCCC2)ncc1Cl | -11.7
92 | COc1ccc(F)c(-c2ncccc2C(=O)N2C[C@H]3CC[C@@H]2C3)c1 | -9.45

Row | SMILES | cytotoxicity at 70.5 h [%]
93 | Cn1nc2c(cc1=O)CN(Cc1nnc(C3CC3)o1)CC2 | 19.5
94 | c1ccc(OCCSC2=NCCN2)cc1 | -2.35
95 | CC(C(=O)N1CCCC1)S(=O)(=O)Cc1noc(C(C)(C)C)n1 (stereo unspecified) | -2.28
96 | COc1cccc(OCCN2CC[C@@](O)(C3CCOCC3)[C@H](C)C2)c1 | 1.27
97 | Cc1cc(NC(=O)C(C)N2CCN(c3ccccc3F)CC2)no1 (stereo unspecified) | 4.65
98 | CC(C)CN1CCCC12CCN(c1nncs1)C2 (stereo unspecified) | -4.38
99 | CCOCC(=O)N1CC[C@H]2OCC[C@@]2(COc2ncccc2F)C1 | -12
100 | CC(=O)NCCC(=O)NCCCOc1c(C)cccc1C | -6.31
101 | CC(C)(C)c1nc(CN2CCCC2Cn2cncn2)no1 (stereo unspecified) | -5.99
102 | Cc1cc(C(=O)N2CCN(C)CC2)nn1CC(=O)NCc1cccs1 | -4.64
103 | O=C(NCc1ccco1)[C@@H]1CCO[C@@H]2CCN(C3CCOCC3)C[C@H]21 | 4.93
104 | O=C(NCc1ccco1)[C@H]1CC[C@@H]2[C@@H](CCN2c2ncc(F)cn2)O1 | -10.2
105 | O=C(NCc1cc[nH]n1)N(CCCO)C1CCc2ccccc21 (stereo unspecified) | -0.509
106 | Cc1ccc(NC(=O)NCCc2ccncc2C)c(N(C)C)n1 | -16.2
107 | CN(C)Cc1nc(C(=O)N2CCCC(COc3ccc(F)cc3)C2)cs1 (stereo unspecified) | -7.27
108 | Cc1nc(CN2CCN(C(=O)c3cc(C4CC4)on3)CC2)cs1 | -14.7
109 | Cc1nsc(N2CCCN(c3nc(C4CC4)ns3)CC2)n1 | 1.36
110 | CC(c1ccco1)N(C(=O)CNc1ccc(C#N)cc1)C1CC1 (stereo unspecified) | 4.38
111 | CN(C(=O)CN1CCCC1c1cnn(C)c1)C(C)(C)C#N (stereo unspecified) | 1.19
